Assay [1] has as its target T1, tubulin (Sus scrofa, UniProt P02550+P02554).
T1 construct: Tubulin is purified from pig brain according to published methods; from tissue; host or cells: pig brain
Nature of the assay: Evaluation of the inhibition of tubulin polymerization (turbidimetry). The format is biochemical, pig. The conditions noted are these: tubulin 10 μm (1 mg/ml), 37° C., turbidity at 350 nm; concentration that inhibits the rate of polymerization by 50%; read-out: Inhibition of tubulin polymerization IC 50 (μm). The method, boiled down: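 Pig brain tubulin (>95% pure), 10 μm in MES pH 6.8/30% glycerol buffer plus 1 mM GTP and 6 mM MgCl2, with compound at 0.5–10 μm added before polymerization. Polymerization triggered by shift from 6° C to 37° C, followed by turbidity at 350 nm; IC50 is 50% inhibition of polymerization rate.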

Assay [2] concerns HCT116 cells. Nature of the assay: Inhibition of proliferation of the human colon tumor line HCT116 ([14C]-thymidine incorporation). Format: cell-based. The conditions noted are these: Homo sapiens, HCT-116, 48 h, 48 hours at 37° C., read-out: Inhibition of HCT116 proliferation IC 50 (μm). The method in brief: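 HCT116 cells (5000/well) in DMEM with 10% fetal calf serum incubated 48 h at 37° C with [14C]-thymidine (0.1 μCi/well) and compound up to 10 μm (DMSO ≤0.5%). Incorporated radioactivity counted; IC50 is concentration cutting radioactivity by 50% versus untreated control.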

These results are taken from patent publication US20050130989A1, “N-arylheteroaromatic products compositions containing them and use thereof” (Aventis Pharma S. A., priority 2003, published 2005).

T1 sequence (P02550 whole entry): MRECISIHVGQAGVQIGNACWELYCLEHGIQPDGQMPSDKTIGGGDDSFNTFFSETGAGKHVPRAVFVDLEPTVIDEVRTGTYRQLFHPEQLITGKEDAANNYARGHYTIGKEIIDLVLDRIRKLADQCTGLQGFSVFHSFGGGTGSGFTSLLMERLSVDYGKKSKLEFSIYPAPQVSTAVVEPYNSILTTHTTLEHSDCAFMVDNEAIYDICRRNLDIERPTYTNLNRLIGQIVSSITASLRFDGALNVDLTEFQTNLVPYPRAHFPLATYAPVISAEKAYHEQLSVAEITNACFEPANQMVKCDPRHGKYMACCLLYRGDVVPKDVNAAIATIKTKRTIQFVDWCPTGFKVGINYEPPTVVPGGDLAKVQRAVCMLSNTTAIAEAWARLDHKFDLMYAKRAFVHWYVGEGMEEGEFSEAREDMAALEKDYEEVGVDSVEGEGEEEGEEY
T1 sequence (P02554 whole entry): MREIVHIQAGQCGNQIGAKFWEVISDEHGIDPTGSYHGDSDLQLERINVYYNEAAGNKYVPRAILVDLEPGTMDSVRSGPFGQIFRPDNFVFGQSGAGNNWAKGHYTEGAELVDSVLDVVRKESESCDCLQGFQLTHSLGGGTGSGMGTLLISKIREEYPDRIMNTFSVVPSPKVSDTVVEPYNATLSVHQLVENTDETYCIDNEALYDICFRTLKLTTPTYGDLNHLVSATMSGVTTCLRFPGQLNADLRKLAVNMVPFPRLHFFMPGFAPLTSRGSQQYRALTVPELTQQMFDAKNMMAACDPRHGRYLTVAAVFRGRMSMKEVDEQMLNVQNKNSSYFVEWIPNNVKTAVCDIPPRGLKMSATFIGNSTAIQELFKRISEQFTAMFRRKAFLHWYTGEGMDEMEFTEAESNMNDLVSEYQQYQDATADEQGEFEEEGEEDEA

On to `Cc1cc(C(=O)N2CCN(c3cccc(Cl)c3)CC2)n(-c2ccc(F)cc2F)n1` [Example E42, [4-(3-Chlorophenyl)piperazin-1-yl][2-(2,4-difluorophenyl)-5-methyl-2H-pyrazol-3-yl]methanone], for which the IC50 in assay [1] is 2090 nM; in assay [2], 50.2 nM.

Take `Cc1cccc(N2CCN(C(=O)c3cc(C)nn3-c3ccc(Cl)cc3)CC2)c1` [3/74]: the IC50 in assay [1] was determined as 7500 nM; in assay [2] it was 298 nM.

Turning to `Cc1cccc(-n2nc(C)cc2C(=O)N2CCN(c3ccc4c(c3)OCCO4)CC2)c1` [3/56], the IC50 in assay [1] came out at 5000 nM; in assay [2], 139 nM.

Consider `COc1cccc(N2CCN(C(=O)c3cc(C)nn3-c3cccc(F)c3)CC2)c1` [3/96], for which the IC50 was found to be 1800 nM in assay [1] and 3.6 nM in assay [2].

Turning to `O=C(c1cc(-c2cccs2)nn1-c1ccccc1)N1CCN(c2cccc(Cl)c2)CC1` [Example E69, [4-(3-Chlorophenyl)piperazin-1-yl][2-phenyl-5-(thiophen-2-yl)-2H-pyrazol-3-yl]methanone], the IC50 in assay [1] was 1700 nM; in assay [2], 6150 nM.

`Cc1cc(C(=O)N2CCN(c3cccc(C(F)(F)F)c3)CC2)n(-c2ccccc2)n1` [3/8]: the IC50 in assay [1] is 6500 nM; in assay [2] it was 841 nM.

Turning to `CSc1ccccc1N1CCN(C(=O)c2cc(C)nn2-c2cccc(F)c2)CC1` [3/97], the IC50 in assay [1] was found to be 3000 nM; in assay [2] it was 83 nM.

Take `Cc1ccc(-n2nc(C)cc2C(=O)N2CCN(c3cccc(C)c3)CC2)cc1` [3/28]: the IC50 was 7000 nM in assay [1] and 269 nM in assay [2].

Consider `Cc1cc(C(=O)N2CCN(c3cccc4ccccc34)CC2)n(-c2ccccc2F)n1` [3/143], for which the IC50 in assay [1] came to 2500 nM; in assay [2], 140 nM.

Regarding `Cc1cc(C(=O)N2CCN(c3cccc4ccccc34)CC2)n(-c2ccccc2)n1` [3/13], the figures for the IC50 in assay [1] and in assay [2] were 6000 nM and 466 nM, respectively.

Consider `Cc1cc(C(=O)N2CCN(c3cccc(C)c3C)CC2)n(-c2ccccc2)n1` [3/9], for which the IC50 in assay [1] came to 7000 nM; in assay [2] it was 494 nM.

For `Cc1ccc(-n2nc(C)cc2C(=O)N2CCN(c3cccc(Cl)c3)CC2)cc1` [3/27], the figures for the IC50 in assay [1] and in assay [2] were 4500 nM and 217 nM, respectively.

For `Cc1cc(C(=O)N2CCN(c3cccc(C(F)(F)F)c3)CC2)n(-c2cccc(Cl)c2)n1` [3/121], the results for the IC50 in assay [1] and in assay [2] were 3300 nM and 51 nM, respectively.

For `Cc1cc(C(=O)N2CCN(c3cc(Cl)ccc3Br)CC2)n(-c2ccccc2)n1` [Example E77, [4-(2-Bromo-5-chlorophenyl)piperazin-1-yl](5-methyl-2-phenyl-2H-pyrazol-3-yl)methanone], the IC50 in assay [1] came out at 700 nM; in assay [2], 26.7 nM.

For `COc1cc(OC)cc(N2CCN(C(=O)c3ccnn3-c3ccccc3)CC2)c1` [Example E92, [4-(3,5-Dimethoxyphenyl)piperazin-1-yl](2-phenyl-2H-pyrazol-3-yl)methanone], the IC50 in assay [1] turned out to be 1160 nM; in assay [2], 1 nM.

As for `Cc1cc(C(=O)N2CCN(c3ccc(F)cc3)CC2)n(-c2cccc(Cl)c2)n1` [3/24], the figures for the IC50 in assay [1] and in assay [2] were 5000 nM and 239 nM, respectively.

In the case of `Cc1ccc(-n2nc(C)cc2C(=O)N2CCN(c3cccc(Cl)c3Cl)CC2)cc1` [3/132], the IC50 in assay [1] turned out to be 20000 nM; in assay [2], 3100 nM.

Consider `COc1cc(OC)cc(N2CCN(C(=O)c3cc(-c4ccoc4)nn3-c3ccccc3)CC2)c1` [Example E90, [4-(3,5-Dimethoxyphenyl)piperazin-1-yl][5-(furan-3-yl)-2-phenyl-2H-pyrazol-3-yl]methanone], for which the IC50 in assay [1] worked out at 1730 nM; in assay [2], 18.8 nM.

Turning to `Cc1ccc(-n2nc(C)cc2C(=O)N2CCN(c3cccc(C(F)(F)F)c3)CC2)cc1` [3/131], the IC50 in assay [1] came to 3100 nM; in assay [2], 135 nM.

For `Cc1cc(C(=O)N2CCN(c3ccnc4ccccc34)CC2)n(-c2ccccc2)n1` [Example E17, (5-Methyl-2-phenyl-2H-pyrazol-3-yl)(4-quinolin-4-ylpiperazin-1-yl)methanone], the IC50 in assay [1] came out at 1500 nM; in assay [2], 8.5 nM.
